ChEMBL document CHEMBL3639310, “Substituted dihydropyrazolones and their use” (2013)

Biological target: Egl nine homolog 1 (Homo sapiens, UniProt Q9GZT9)
Test: In Vitro Inhibition Assay: In vitro tests for determination of the activity and selectivity of HIF prolyl 4-hydroxylase inhibitors. Hydroxylated HIF bonds specifically to the von Hippel-Lindau protein-elongin B-elongin C complex (VBC complex). This interaction occurs only if HIF is hydroxylated on a conserved prolyl radical. It is the basis for the biochemical determination of HIF prolyl hydroxylase activity. The test is carried out as described [Oehme F., Jonghaus W., Narouz-Ott L., Huetter J., Flamme I., Anal. Biochem. 330 (1), 74-80 (2004)].

Chain of Egl nine homolog 1 (Q9GZT9 whole entry, looked up): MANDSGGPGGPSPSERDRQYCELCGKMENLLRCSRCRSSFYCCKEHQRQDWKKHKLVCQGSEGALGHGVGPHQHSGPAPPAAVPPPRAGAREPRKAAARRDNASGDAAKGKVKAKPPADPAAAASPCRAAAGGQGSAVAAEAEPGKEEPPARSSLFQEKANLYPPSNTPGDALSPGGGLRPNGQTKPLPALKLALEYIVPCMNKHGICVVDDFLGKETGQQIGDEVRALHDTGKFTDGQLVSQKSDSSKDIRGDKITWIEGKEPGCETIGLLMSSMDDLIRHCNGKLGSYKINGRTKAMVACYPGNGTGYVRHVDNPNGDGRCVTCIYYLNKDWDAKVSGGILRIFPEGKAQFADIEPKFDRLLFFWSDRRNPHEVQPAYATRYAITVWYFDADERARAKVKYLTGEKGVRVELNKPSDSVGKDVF

IC50: 90 nM
SMILES: N#Cc1cn(-c2c[nH]n(-c3cc(N4CC(F)(F)C4)ncn3)c2=O)cn1
